Laboratory results reported in patent US9346811B2, “6,7-dihydro-pyrazolo[1,5-a]pyrazin-4-ylamine derivatives useful as inhibitors of beta-secretase (BACE)” (JANSSEN PHARMACEUTICA NV, priority 2011, dated 2016).

What was measured:
[1] = biological target: recombinant BACE1 protein (Homo sapiens, UniProt P56817); assay: Biochemical FRET based assay; details: recombinant BACE1 1 μg/ml, 120 min, pH 5.0; for IC50: read-out: Biochemical FRET based assay pIC50 (converted)
Source text: Biochemical FRET Based Assay
This assay is a Fluorescence Resonance Energy Transfer Assay (FRET) based assay. The substrate for this assay is an APP derived 13 amino acids peptide that contains the ‘Swedish’ Lys-Met/Asn-Leu mutation of the amyloid precursor protein (APP) β-secretase cleavage site. This substrate also contains two fluorophores: (7-methoxycoumarin-4-yl)acetic acid (Mca) is a fluorescent donor with excitation wavelength at 320 nm and emission at 405 nm and 2,4-Dinitrophenyl (Dnp) is a proprietary quencher acceptor. […] Upon cleavage by BACE1, the fluorophore Mca is separated from the quenching group Dnp, restoring the full fluorescence yield of the donor. The increase in fluorescence is linearly related to the rate of proteolysis (Koike H et al. J. Biochem. 1999, 126, 235-242). Briefly in a 384-well format recombinant BACE1 protein in a final concentration of 1 μg/ml is incubated for 120 min at room temperature with 10 μm substrate in incubation buffer (40 mM Citrate buffer pH 5.0, 0.04% PEG, 4% DMSO) in the absence or presence of compound. Next the amount of proteolysis is directly measured by fluorescence measurement at T=0 and T=120 (excitation at 320 nm and emission at 405 nm).

[2] = system: Aβ42 produced and secreted into the medium of human neuroblastoma SKNBE2 cells; assay: Cellular αlisa assay in SKNBE2 cells, Aβ42; type: cell-based; details: SKNBE2 cells expressing hAPP695, 18 hours incubation; for IC50: Homo sapiens, SKNBE2, 18 h, read-out: Cellular αlisa assay in SKNBE2 cells Aβ42 pIC50 (converted)
Description: (§1) Cellular αlisa Assay in SKNBE2 Cells
(§2) In two αlisa assays the levels of Aβtotal and Aβ42 produced and secreted into the medium of human neuroblastoma SKNBE2 cells are quantified. The assay is based on the human neuroblastoma SKNBE2 expressing the wild type Amyloid Precursor Protein (hAPP695). The compounds are diluted and added to these cells, incubated for 18 hours and then measurements of Aβ42 and Aβtotal are taken. Aβtotal and Aβ42 are measured by sandwich αlisa. αlisa is a sandwich assay using biotinylated antibody AbN/25 attached to streptavidin coated beads and antibody Ab4G8 or cAb42/26 conjugated acceptor beads for the detection of Aβtotal and Aβ42 respectively. In the presence of Aβtotal or Aβ42, the beads come into close proximity. The excitation of the Donor beads provokes the release of singlet oxygen molecules that triggers a cascade of energy transfer in the Acceptor beads, resulting in light emission. Light emission is measured after 1 hour incubation (excitation at […] and emission at 615 nm).
(§3) A best-fit curve is fitted by a minimum sum of squares method to the plot of % Controlmin versus compound concentration.

[3] = system: Aβtotal produced and secreted into the medium of human neuroblastoma SKNBE2 cells; assay: Cellular αlisa assay in SKNBE2 cells, Aβtotal; type: cell-based; details: SKNBE2 cells expressing hAPP695, 18 hours incubation; for IC50: Homo sapiens, SKNBE2, 18 h, read-out: Cellular αlisa assay in SKNBE2 cells Aβtotal pIC50 (converted)
Description: as §1, §2, §3

[4] = system: brain levels of soluble Aβ42; assay: In vivo efficacy: brain Aβ42 lowering (ELISA); design: species or system mouse
Source text: (§4) To determine whether acute administration of an Aβ42 peptide lowering agent would reduce Aβ peptide levels in vivo, non-transgenic rodents, e.g. mice or rats were used. Animals treated with the Aβ peptide lowering agent were examined and compared to those untreated or treated with vehicle and brain levels of soluble Aβ42 and total Aβ were quantitated by standard techniques, for example, using ELISA. Treatment periods varied from hours (h) to days and were adjusted based on the results of the Aβ42 lowering once a time course of onset of effect could be established.
(§5) A typical protocol for measuring Aβ42 lowering in vivo is shown but it is only one of many variations that could be used to optimize the levels of detectable Aβ. For example, Aβ peptide lowering compounds were formulated in 20% hydroxypropyl β cyclodextrin. The Aβ peptide lowering agents were administered as a single oral dose (p.o.) or a single subcutaneous dose (s.c.) to overnight fasted animals. After a certain time, usually 2 or 4 h (as indicated in Table 7), the animals were sacrificed and Aβ42 levels were analysed.
(§6) Blood was collected by decapitation and exsanguinations in EDTA-treated collection tubes. Blood was centrifuged at 1900 g for 10 minutes (min) at 4° C. and the plasma recovered and flash frozen for later analysis. The brain was removed from the cranium and hindbrain. The cerebellum was removed and the left and right hemisphere were separated. The left hemisphere was stored at −18° C. for quantitative analysis of test compound levels. The right hemisphere was rinsed with phosphate-buffered saline (PBS) buffer and immediately frozen on dry ice and stored at −80° C. until homogenization for biochemical assays.
(§7) Mouse brains from non-transgenic animals were resuspended in 8 volumes of 0.4% DEA (diethylamine)/50 mM NaCl containing protease inhibitors (Roche-11873580001 or 04693159001) per gram of tissue, e.g. for 0.158 g brain, add 1.264 ml of 0.4% DEA. All samples were homogenized in the FastPrep-24 system (MP Biomedicals) using lysing matrix D (MPBio #6913-100) at 6 m/s for 20 seconds. Homogenates were centrifuged at 221.300×g for 50 min. The resulting high speed supernatants were then transferred to fresh eppendorf tubes. Nine parts of supernatant were neutralized with 1 part 0.5 M Tris-HCl pH 6.8 and used to quantify Aβtotal and Aβ42.
(§8) To quantify the amount of Aβtotal and Aβ42 in the soluble fraction of the brain homogenates, Enzyme-Linked-Immunosorbent-Assays were used. Briefly, the standards (a dilution of synthetic Aβ1-40 and […], Bachem) were prepared in 1.5 ml Eppendorf tube in Ultraculture, with final concentrations ranging from 10000 to 0.3 pg/ml. The samples and standards were co-incubated with HRPO-labelled N-terminal antibody for Aβ42 detection and with the biotinylated mid-domain antibody 4G8 for Aβtotal detection. 50 μl of conjugate/sample or conjugate/standards mixtures were then added to the antibody-coated plate (the capture antibodies selectively recognize the C-terminal end of Aβ42, antibody JRF/cAβ42/26, for Aβ42 detection and the N-terminus of Aβ, antibody JRF/rAβ/2, for Aβtotal detection). The plate was allowed to incubate overnight at 4° C. in order to allow formation of the antibody-amyloid complex. Following this incubation and subsequent wash steps the ELISA for Aβ42 quantification was finished by addition of Quanta Blu fluorogenic peroxidase substrate according to the manufacturer's instructions (Pierce Corp., Rockford, Il.). A reading was performed after 10 to 15 min (excitation 320 nm/emission 420 nm).
In this model at least 20% Aβ42 lowering compared to untreated animals would be advantageous.

brain levels of total Aβ = assay: In vivo efficacy: brain Aβtotal lowering (ELISA); design: species or system mouse
Source text: as §4, §5, §6, §7, §8
For Aβtotal detection, a Streptavidine-Peroxidase-Conjugate was added, followed 60 min later by an additional wash step and addition of Quanta Blu fluorogenic peroxidase substrate according to the manufacturer's instructions (Pierce Corp., Rockford, Il.). A reading was performed after 10 to 15 min (excitation 320 nm/emission 420 nm).

[5] = 10 mg/kg p.o., 4 h. after administration
[6] = 5 mg/kg p.o., 4 h. after administration
[7] = 30 mg/kg p.o., 4 h. after administration
[8] = 30 mg/kg p.o., 2 h after administration
[9] = 100 mg/kg s.c., 4 h. after administration

Sequence of recombinant BACE1 protein (P56817 46-501): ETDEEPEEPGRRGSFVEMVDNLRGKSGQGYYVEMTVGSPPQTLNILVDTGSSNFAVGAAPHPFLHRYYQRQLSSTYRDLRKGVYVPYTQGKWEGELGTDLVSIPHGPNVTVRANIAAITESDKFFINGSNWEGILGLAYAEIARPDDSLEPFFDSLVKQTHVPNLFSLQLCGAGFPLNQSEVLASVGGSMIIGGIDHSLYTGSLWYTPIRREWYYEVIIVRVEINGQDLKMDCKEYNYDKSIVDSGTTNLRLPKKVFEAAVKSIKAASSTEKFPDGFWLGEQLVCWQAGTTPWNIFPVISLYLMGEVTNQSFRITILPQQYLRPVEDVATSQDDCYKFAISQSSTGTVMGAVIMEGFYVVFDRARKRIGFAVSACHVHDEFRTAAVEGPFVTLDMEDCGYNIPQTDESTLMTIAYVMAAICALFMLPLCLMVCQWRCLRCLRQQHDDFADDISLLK

SMILES	IC50 [1]	IC50 [2]	IC50 [3]	Aβ42 (% Ctrl)_Mean [4, 5]	Aβtotal (% Ctrl)_Mean (brain levels of total Aβ; [5])	Aβ42 (% Ctrl)_Mean [4, 7]	Aβtotal (% Ctrl)_Mean (brain levels of total Aβ; [7])	Cellular αlisa assay in SKNBE2 cells Aβ42 pIC50 [2]	Cellular αlisa assay in SKNBE2 cells Aβtotal pIC50 [3]	other results
COc1cnc(C(=O)Nc2ccc(F)c([C@]3(C)Cn4nc(C(F)F)cc4C(N)=N3)c2)cn1 [Compound 28, (R)-5-methoxy-pyrazine-2-carboxylic acid [3-(4-amino-2-difluoromethyl-6-methyl-6,7-dihydro-pyrazolo[1,5-a]pyrazin-6-yl)-4-fluoro-phenyl]-amide]	69.2 nM	5.25 nM	6.31 nM	39 % Ctrl	50 % Ctrl	–	–	–	–	–
C[C@@]1(c2cc(NC(=O)c3ccc(F)cn3)ccc2F)Cn2nc(C#N)cc2C(N)=N1 [Compound 24, (R)-5-fluoro-pyridine-2-carboxylic acid [3-(4-amino-2-cyano-6-methyl-6,7-dihydro-pyrazolo[1,5-a]pyrazin-6-yl)-4-fluoro-phenyl]-amide]	32.4 nM	3.31 nM	3.89 nM	–	–	16 % Ctrl	31 % Ctrl	–	–	Aβ42 (% Ctrl)_Mean [4, 6]: 66 % Ctrl; Aβtotal (% Ctrl)_Mean (brain levels of total Aβ; [6]): 59 % Ctrl
C[C@@]1(c2cc(NC(=O)c3ccc(F)cn3)ccc2F)Cn2nc(C(F)F)cc2C(N)=N1 [Compound 27, (R)-5-fluoro-pyridine-2-carboxylic acid [3-(4-amino-2-difluoromethyl-6-methyl-6,7-dihydro-pyrazolo[1,5-a]pyrazin-6-yl)-4-fluoro-phenyl]-amide]	60.3 nM	7.08 nM	6.76 nM	55 % Ctrl	61 % Ctrl	–	–	–	–	–
COc1cnc(C(=O)Nc2cccc(C3(C)Cn4nc(C(F)(F)F)cc4C(N)=N3)c2)cn1 (single isomer, unassigned) [Compound 32]	–	–	–	–	–	–	–	7.76	7.84	Biochemical FRET based assay pIC50 [1]: 7.20; Aβ42 (% Ctrl)_Mean [4, 8]: 53 % Ctrl; Aβtotal (% Ctrl)_Mean (brain levels of total Aβ; [8]): 58 % Ctrl
CC1(c2cccc(NC(=O)c3ncc(Cl)cc3Cl)c2)Cn2nc(C(F)(F)F)cc2C(N)=N1 (single isomer, unassigned) [Compound 11, (R*)-3,5-dichloro-pyridine-2-carboxylic acid [3-(4-amino-6-methyl-2-trifluoromethyl-6,7-dihydro-pyrazolo[1,5-a]pyrazin-6-yl)-phenyl]-amide]	28.2 nM	–	–	–	–	89 % Ctrl	84 % Ctrl	7.94	8.01	–
CC1(c2cccc(NC(=O)c3ccc(C#N)cn3)c2)Cn2nccc2C(N)=N1 (single isomer, unassigned) [Compound 7, (R*)-5-cyano-pyridine-2-carboxylic acid [3-(4-amino-6-methyl-6,7-dihydro-pyrazolo[1,5-a]pyrazin-6-yl)-phenyl]-amide]	–	–	–	–	–	88 % Ctrl	101 % Ctrl	8.66	8.69	–
COc1cnc(C(=O)Nc2ccc(F)c([C@]3(C)Cn4nc(C#N)cc4C(N)=N3)c2)cn1 [Compound 23, (R)-5-methoxy-pyrazine-2-carboxylic acid [3-(4-amino-2-cyano-6-methyl-6,7-dihydro-pyrazolo[1,5-a]pyrazin-6-yl)-4-fluoro-phenyl]-amide]	39.8 nM	1.78 nM	1.95 nM	45 % Ctrl	39 % Ctrl	–	–	–	–	–
COc1cnc(C(=O)Nc2ccc(F)c([C@]3(C)Cn4nc(C)c(F)c4C(N)=N3)c2)cn1 [Compound 29, (R)-5-methoxy-pyrazine-2-carboxylic acid [3-(4-amino-3-fluoro-2,6-dimethyl-6,7-dihydro-pyrazolo[1,5-a]pyrazin-6-yl)-4-fluoro-phenyl]-amide]	81.3 nM	16.2 nM	17 nM	59 % Ctrl	58 % Ctrl	–	–	–	–	–
CC1(c2cc(NC(=O)c3ccc(F)cn3)ccc2F)Cn2ncc(F)c2C(N)=N1 (stereo not shown) [Compound 33]	–	–	–	–	–	–	–	8.09	8.14	Biochemical FRET based assay pIC50 [1]: 7.19; Aβ42 (% Ctrl)_Mean [4, 9]: 49 % Ctrl; Aβtotal (% Ctrl)_Mean (brain levels of total Aβ; [9]): 20 % Ctrl
